Results: patent EP4741427A1, “GLYCAN, PREPARATION METHOD THEREFOR AND USE THEREOF, AND ANTI-TUMOR DRUG” (Peking University, priority 2023, dated 2025)

Assays:
[1] = tested on: Aspc-1; assay: CCK-8 proliferation inhibition of pancreatic cancer cells; format: cell-based; settings: 72 h
Excerpt: (§1) Three pancreatic cancer cell lines (Aspc-1, Bxpc-3, Panc-1) and the hepatocyte cell line LO2 used in the experiments were provided by Peking University People's Hospital and the Institute of Materia Medica, Chinese Academy of Medical Sciences. The culture conditions for Aspc-1 and Bxpc-3 cells were RPMI 1640 medium (Gibco, Thermo Fisher Scientific, USA) supplemented with 10% fetal bovine serum (HyClone, Thermo Fisher Scientific, USA) and 1% penicillin/streptomycin (Life Technologies, Thermo Fisher Scientific, USA). The culture conditions for Panc-1 and LO2 cells were DMEM medium (Gibco, Thermo Fisher Scientific, USA) supplemented with 10% fetal bovine serum (HyClone, Thermo Fisher Scientific, USA) and 1% penicillin/streptomycin (Life Technologies, Thermo Fisher Scientific, USA). Cell culture was conducted at 37°C with adequate humidity and 5% CO2 concentration.
(§2) Three types of pancreatic cancer cells (Aspc-1, Bxpc-3, Panc-1) were seeded into 96-well plates at a density of 5×10^3 cells/well (100 µL). After the cells adhered, gemcitabine (50 µM), compound 2-11 (140-mer 2-11, 50 µM), 2-30 (70-mer 2-30, 50 µM), 2-31 (40-mer 2-31, 50 µM), 2-32 (30-mer 2-32, 50 µM), 2-33 (10-mer A 2-33, 50 µM), 2-34 (10-mer B 2-34, 50 µM), 2-35 (5-mer A 2-35, 50 µM), 2-36 (5-mer B 2-36, 50 µM), and 2-37 (5-mer C 2-37, 50 µM) were added, respectively. The cells were co-incubated for 72 h. Then, 10 µL of CCK-8 reagent was added to each well and incubated at 37°C for 2 h. After thorough mixing, the absorbance at 450 nm was measured by using a microplate reader. A cell survival rate was calculated by using the following formula: Cell survival rate(%) = (ODsample−OD_blank)/(OD_control−OD_blank) × 100%. [formula]
(§3) Three types of pancreatic cancer cells (Aspc-1, Bxpc-3, and Panc-1) were seeded into 96-well plates at a density of 5×10^3 cells/well (100 µL). After the cells adhered, different concentrations of compound 2-34 (3.125 µM, 6.25 µM, 12.5 µM, 25 µM, 50 µM, 100 µM) were added. The cells were co-incubated for 72 h. Then, 10 µL of CCK-8 reagent was added to each well and incubated at 37°C for 2 h. After thorough mixing, the absorbance at 450 nm was measured by using a microplate reader, and the cell survival rate was calculated.

[2] = tested on: Panc-1; assay: as above; format: cell-based; settings: 72 h
Excerpt: as §1, §2, §3

[3] = tested on: Panc-1 cells; assay: Apoptosis, Annexin V-FITC/PI double staining with flow cytometry; format: cell-based; settings: 72 h
Protocol: Pancreatic cancer Panc-1 cells were seeded into 24-well plates at a density of 3×10^4 cells/well. After the cells adhered, different concentrations of compound 2-34 (25 µM, 50 µM, 100 µM) were added and co-incubated for 72 h. All cells were collected, washed 2 times with PBS, and resuspended in binding buffer (Beyotime, Shanghai, China). Then, 5 µL of Annexin V-FITC (fluorescein isothiocyanate) and 10 µL of PI (propidium iodide) dye were added in sequence, and the cells were stained in the dark for 20 min. The apoptosis rate was detected by using a flow cytometer (Beckman CytoFLEX), and the specific apoptosis ratio was analyzed by using CytoFLEX software.

[4] = tested on: LO2 hepatocytes; assay: CCK-8 cytotoxicity on hepatocytes; format: cell-based, human; settings: concentration up to 100 µM, 72 h
Excerpt: as §1
LO2 hepatocytes were seeded into 96-well plates at a density of 5×10^3 cells/well (100 µL). After the cells adhered, different concentrations of compound 2-34 (3.125 µM, 6.25 µM, 12.5 µM, 25 µM, 50 µM, 100 µM) and the positive control drug gemcitabine (3.125 µM, 6.25 µM, 12.5 µM, 25 µM, 50 µM, 100 µM) were added, respectively. The cells were co-incubated for 72 h. […] After thorough mixing, the absorbance at 450 nm was measured by using a microplate reader, and the cell survival rate was calculated.

[5] = tested on: Bxpc-3; assay: CCK-8 proliferation inhibition of pancreatic cancer cells; format: cell-based; settings: 72 h
Excerpt: as §1, §2, §3

[6] = tested on: Panc-1 cells; assay: Cell cycle, PI staining with flow cytometry; format: cell-based; settings: 72 h
Protocol: Pancreatic cancer Panc-1 cells were seeded into 24-well plates at a density of 6×10^4 cells/well. After the cells adhered, different concentrations of compound 2-34 (25 µM, 50 µM, 100 µM) were added and co-incubated for 72 h. All cells were collected, washed 2 times with PBS, and fixated in 70% (volume fraction) ethanol overnight. The fixated cells were collected, washed 2 times with PBS, and stained with PI staining solution containing RNase (ribonuclease) in the dark for 30 min. The nucleic acid content in the cells was detected by using a flow cytometer, and the percentage of cells in each cycle phase was analyzed by using ModFit software.

Molecule	inhibition at 50 µM ([1]; Homo sapiens, ASPC1, Aspc-1, 50 µM, read-out: inhibition rates) [%]	inhibition at 50 µM ([2]; Homo sapiens, Panc-1, 50 µM, read-out: inhibition rates) [%]	apoptosis rate ([3]; Panc-1, 25 µM) [%]	apoptosis rate ([3]; Panc-1, 50 µM) [%]	apoptosis rate ([3]; Panc-1, 100 µM) [%]	cytotoxicity towards the growth of LO2 hepatocytes [4]	inhibition rates ([5]; Bxpc-3, 50 µM) [%]	proliferation inhibition, concentration dependence ([5]; Bxpc-3, 3.125-100 µM)	inhibition rates ([1]; Aspc-1, 50 µM) [%]	proliferation inhibition, concentration dependence ([1]; Aspc-1, 3.125-100 µM)	inhibition rates ([2]; Panc-1, 50 µM) [%]	proliferation inhibition, concentration dependence ([2]; Panc-1, 3.125-100 µM)	number of cells in the G2 phase ([6]; Panc-1, 25 µM, 50 µM, 100 µM)	proportion of cells in the G1 phase ([6]; Panc-1, 25 µM) [%]	proportion of cells in the S phase ([6]; Panc-1, 25 µM) [%]	proportion of cells in the G1 phase ([6]; Panc-1, 50 µM) [%]	proportion of cells in the S phase ([6]; Panc-1, 50 µM) [%]	proportion of cells in the G1 phase ([6]; Panc-1, 100 µM) [%]	proportion of cells in the S phase ([6]; Panc-1, 100 µM) [%]
Nc1ccn([C@@H]2O[C@H](CO)[C@@H](O)C2(F)F)c(=O)n1 [gemcitabine, reference compound]	61.4	23.2	–	–	–	–	–	–	–	–	–	–	–	–	–	–	–	–	–
Octylβ-D-galactopyranosyl-(1→6)-β-D-galactopyranosyl-(1→6)-β-D-galactopyranosyl-( 1→6)-{α-L-arabinofuranosyl-(1→5)-α-L-arabinofuranosyl-(1→5)-α-L-arabinofuransyl-(1→5)-[ β-D-galactopyranosyl-(1→3)]-α-L-arabinofuranosyl-(1→3)-β-D-galactopyranosyl-(1→3)}-β-D-galactopyranoside [compound 2-34]	–	–	31.99	31.92	67.59	no cytotoxicity	29.5	significant concentration dependence	74.9	significant concentration dependence	72.1	significant concentration dependence	remains relatively stable with minor changes	51.33	22.19	46.99	27.66	42.43	36.29
